{"source": "paper PMC4552316", "about": "(Nature chemical biology, 2011)", "key": {"[1]": {"biological_target": "T1, human GMPR type 2 (hGMPR2) (Homo sapiens, UniProt Q9P2T1)", "T1 sequence (Q9P2T1 1-348)": "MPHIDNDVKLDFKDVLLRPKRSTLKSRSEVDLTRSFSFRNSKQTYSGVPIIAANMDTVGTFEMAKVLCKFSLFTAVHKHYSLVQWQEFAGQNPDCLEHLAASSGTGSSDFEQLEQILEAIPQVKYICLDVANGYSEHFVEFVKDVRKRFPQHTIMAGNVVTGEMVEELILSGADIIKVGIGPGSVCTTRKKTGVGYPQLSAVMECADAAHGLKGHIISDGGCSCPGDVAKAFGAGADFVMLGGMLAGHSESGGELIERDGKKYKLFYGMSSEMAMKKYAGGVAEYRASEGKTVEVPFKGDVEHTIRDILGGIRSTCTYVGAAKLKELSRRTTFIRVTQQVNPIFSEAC", "assay": "X-ray crystal structure of E•IMP•NADPH, […] Å", "format": "binding"}, "[2]": {"biological_target": "E. coli GMPR (EcGMPR), GMP reductase (Escherichia coli, UniProt P60560)", "sequence (P60560 whole entry)": "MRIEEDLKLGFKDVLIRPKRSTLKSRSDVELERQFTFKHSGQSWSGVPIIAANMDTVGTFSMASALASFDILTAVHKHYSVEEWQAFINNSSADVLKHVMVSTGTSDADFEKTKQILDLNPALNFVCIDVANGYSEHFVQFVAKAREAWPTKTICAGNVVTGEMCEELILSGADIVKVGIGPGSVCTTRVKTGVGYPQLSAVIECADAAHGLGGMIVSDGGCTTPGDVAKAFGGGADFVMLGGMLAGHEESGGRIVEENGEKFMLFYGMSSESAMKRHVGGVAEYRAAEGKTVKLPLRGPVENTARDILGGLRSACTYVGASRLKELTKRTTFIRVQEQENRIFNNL", "assay": "spectrophotometric enzyme inhibition assay", "format": "biochemical"}, "[3]": {"tested_on": "CC(=O)C1=CN([C@@H]2O[C@H](COP(=O)(O)OP(=O)(O)OC[C@H]3O[C@@H](n4cnc5c(N)ncnc54)[C@H](OP(=O)(O)O)[C@@H]3O)[C@@H](O)[C@H]2O)C=CC1", "assay": "purified protein", "conditions": "2-Cl-IMP (co-substrate); varied: cofactor"}, "[4]": {"tested_on": "O=c1[nH]c(Cl)nc2c1ncn2[C@@H]1O[C@H](COP(=O)(O)O)[C@@H](O)[C@H]1O", "assay": "purified protein", "conditions": "NADPH or NADP+ catalytic Cys186 (E-XMP* intermediate; none with C186A)"}, "crystal structure": {"biological_target": "the molecule itself", "assay": "crystal structure"}}, "data": [{"molecule": "NC(=O)C1=CN([C@@H]2O[C@H](COP(=O)(O)OP(=O)(O)OC[C@H]3O[C@@H](n4cnc5c(N)ncnc54)[C@H](OP(=O)(O)O)[C@@H]3O)[C@@H](O)[C@H]2O)C=CC1", "note": "[NADPH]", "values": [{"measurement": "X-ray crystal structure of E•IMP•NADPH, 1.7 Å", "setting": "[1]", "value": "NADPH was found in two conformations in the seven monomers, an \"in\" conformation and an \"out\" conformation"}]}, {"molecule": "NC(=O)c1ncn([C@@H]2O[C@H](COP(=O)(O)O)[C@@H](O)[C@H]2O)n1", "note": "[Ribavirin monophosphate]", "values": [{"measurement": "Ki", "setting": "[2]", "value": "98 ± 25", "unit": "µM"}]}, {"molecule": "NC(=O)c1ncn([C@@H]2O[C@H](COP(=O)(O)O)[C@@H](O)[C@H]2O)c1O", "note": "[mizoribine monophosphate]", "values": [{"measurement": "Ki", "setting": "[2]", "value": "0.015 ± 0.003", "unit": "µM"}]}, {"molecule": "E. coli GMPR (EcGMPR), GMP reductase (Escherichia coli K-12)", "values": [{"measurement": "Km", "setting": "[3]", "value": "11.0 ± 2.0", "unit": "µM"}, {"measurement": "Km", "setting": "[4]", "value": "7.8 ± 1.1", "unit": "µM"}]}, {"molecule": "human GMP reductase type 2 (enzyme) LDFKDVLLRPKRSTLKSRSEVDLTRSFSFRNSKQTYSGVPIIAANMDTVGTFEMAKVLCKFSLFTAVHKHYSLVQWQEFAGQNPDCLEHLAASSGTGSSDFEQLEQILEAIPQVKYICLDVANGYSEHFVEFVKDVRKRFPQHTIMAGNVVTGEMVEELILSGADIIKVGIGPGSVCTTRKKTGVGYPQLSAVMECADAAHGLKGHIISDGGCSCPGDVAKAFGAGADFVMLGGMLAGHSESGGELIERDGKKYKLFYGMSSEMAMKKYAGGVAEYRASEGKTVEVPFKGDVEHTIRDILGGIRSTCTYVGAAKLKELSRRTTFIRVTQQVN", "values": [{"measurement": "stoichiometry N", "setting": "crystal structure", "value": 4}]}]}
